Source: patent US20230089715A1, “MASITINIB FOR THE TREATMENT OF A MULTIPLE SCLEROSIS PATIENT SUBPOPULATION” (AB SCIENCE, priority 2020, published 2023)

Tested on: patients with progressive multiple sclerosis (PPMS or non-active SPMS)
Experiment: Study AB07002: randomized, double-blind, placebo-controlled phase 3 study, overall EDSS change from baseline
Assay type: in vivo, human
Parameters: key to LSM EDSS, MAS (overall EDSS change from baseline): LS mean EDSS change from baseline; positive value = worsening
Conditions: 4.5 mg/kg/day oral; for ΔEDSS (between group difference, treatment-effect vs placebo) / LSM EDSS, MAS (overall EDSS change from baseline) / R % (relative difference in ΔEDSS with respect to full analysis dataset): 96 weeks; for treatment-effect with respect to placebo (EDSS): non-active SPMS
Description: An international, multicenter, randomized, double-blind, placebo-controlled phase 3 study was conducted with the objective to evaluate oral masitinib at a dose of 4.5 mg/kg/day as a treatment for progressive multiple sclerosis (progressive MS), as defined hereinabove. […] Eligible patients were treated for 96 weeks with masitinib at a dose of 4.5 mg/kg/day (mg per kilo body weight per day) or with placebo. Primary endpoint was overall EDSS change from baseline using a repeated analysis of covariance model (i.e., ANCOVA GEE model on all measurements from week 12 (W12) to week 96 (W96)). Results are expressed as least-squares means difference, illustrating the progression of EDSS score, that is to say the change over time in the EDSS score or in other words the difference between the EDSS score at baseline and the EDSS score after treatment with masitinib or with placebo (a positive value indicates a worsening of the patient). Treatment-effect is reported as between-group difference (ΔLSM, negative value indicates a beneficial effect of treatment with masitinib as compared to treatment with placebo). […] Patients suffering from a disease other than MS that would better explain their neurological clinical signs and symptoms and/or lesions observed with magnetic resonance imaging (“MRI lesions”) were excluded. Subpopulation analyses of primary endpoint data from study AB07002 assessed the impact of the clinical markers ‘time from onset’ with respect to baseline (i.e., date of treatment initiation), derived from the estimated date of first clinical MS symptom(s), or ‘time from diagnosis’ with respect to baseline (i.e., date of treatment initiation), on masitinib efficacy in patients with progressive MS (see Example 3). ‘Time from onset’ is derived from the date (year/month/day, year/month, or year) of first clinical symptom(s) with duration calculated from date of treatment initiation. The date of first symptom(s) is typically determined retrospectively from medical history, for example from medical records and patient/caregiver historical recall of MS related symptoms following a clinically definite diagnosis. Imputation of missing data can be handled using various methods, one example of which is the following approach: if the information regarding day is missing, the day is considered to be the last day of the month; if the day and month are missing, the day is considered to be the last day of June. ‘Time from diagnosis’ of progressive MS, is ideally based on a clinically definite diagnosis of progressive MS as determined by a MS specialist neurologist. In practice it is derived from the date (year/month/day, year/month, or year) of first clinically definite diagnosis of progressive MS, i.e., PPMS or non-active SPMS, with duration calculated from date of treatment initiation. At the time of MS diagnosis, a provisional disease course should be specified (relapsing-remitting, primary progressive, or secondary progressive) and whether the course is active or not (non-active) and progressive or not based on the previous year's history. The phenotype should be periodically re-evaluated based on accumulated information. Comparison of subpopulation analyses with respect to the corresponding full analysis dataset (see Table 4) is reported as relative difference in ΔEDSS (R %). A large positive R % value indicates a subpopulation that receives greater benefit from masitinib treatment, while a negative R % value indicates a diminished treatment-effect or lack of discernable treatment-effect in the subpopulation.

[1] = nSPMS, T(diag) > 2 Y and T(onset) > 5 Y

## Cc1ccc(NC(=O)c2ccc(CN3CCN(C)CC3)cc2)cc1Nc1nc(-c2cccnc2)cs1 [masitinib, 4-(4-methylpiperazin-1-ylmethyl)-N-[4-methyl-3-(4-pyridin-3ylthiazol-2-ylamino)phenyl]benzamide]
Progressive MS, T(diag) ≤ 1 Y
  ΔEDSS (between group difference, treatment-effect vs placebo): 0.261
Progressive MS, T(diag) ≤ 2 Y
  LSM EDSS, MAS (overall EDSS change from baseline): 0.163
Progressive MS, T(diag) ≤ 3 Y
  LSM EDSS, MAS (overall EDSS change from baseline): 0.056
  ΔEDSS (between group difference, treatment-effect vs placebo): 0.053
Progressive MS, T(diag) ≤ 4 Y
  LSM EDSS, MAS (overall EDSS change from baseline): 0.075
  ΔEDSS (between group difference, treatment-effect vs placebo): −0.028
Progressive MS, T(onset) > 1 Y
  LSM EDSS, MAS (overall EDSS change from baseline): 0.012
  R % (relative difference in ΔEDSS with respect to full analysis dataset): −5%
  ΔEDSS (between group difference, treatment-effect vs placebo): −0.094
Progressive MS, T(onset) > 2 Y
  LSM EDSS, MAS (overall EDSS change from baseline): 0.004
  R % (relative difference in ΔEDSS with respect to full analysis dataset): 1%
  ΔEDSS (between group difference, treatment-effect vs placebo): −0.100
Progressive MS, T(onset) > 3 Y
  LSM EDSS, MAS (overall EDSS change from baseline): −0.010
  R % (relative difference in ΔEDSS with respect to full analysis dataset): 20%
  ΔEDSS (between group difference, treatment-effect vs placebo): −0.119
Progressive MS, T(onset) > 4 Y
  LSM EDSS, MAS (overall EDSS change from baseline): −0.027
  R % (relative difference in ΔEDSS with respect to full analysis dataset): 29%
  ΔEDSS (between group difference, treatment-effect vs placebo): −0.128
Progressive MS, T(onset) > 5 Y
  LSM EDSS, MAS (overall EDSS change from baseline): −0.031
  ΔEDSS (between group difference, treatment-effect vs placebo): −0.156
Progressive MS, T(onset) > 5 Y, 4.5 mg/kg/day
  R % (relative difference in ΔEDSS with respect to full analysis dataset): 58%
Progressive MS, T(onset) ≤ 3 Y
  LSM EDSS, MAS (overall EDSS change from baseline): 0.106
  ΔEDSS (between group difference, treatment-effect vs placebo): 0.346
Progressive MS, T(onset) ≤ 4 Y
  LSM EDSS, MAS (overall EDSS change from baseline): −0.000
  ΔEDSS (between group difference, treatment-effect vs placebo): 0.146
Progressive MS, T(onset) ≤ 5 Y
  LSM EDSS, MAS (overall EDSS change from baseline): 0.259
Progressive MS, complement T(diag) ≤ 2 Y or T(onset) ≤ 5 Y
  LSM EDSS, MAS (overall EDSS change from baseline): 0.173
Progressive MS, full analysis dataset
  LSM EDSS, MAS (overall EDSS change from baseline): 0.008
Progressive MS, full analysis dataset, 4.5 mg/kg/day
  ΔEDSS (between group difference, treatment-effect vs placebo): −0.099
Progressive MS, full analysis dataset, listed as Masitinib, 4.5 mg/kg/day
  ΔEDSS (between group difference, treatment-effect vs placebo): significant slowing of EDSS progression
nSPMS, T(diag) > 1 Y
  LSM EDSS, MAS (overall EDSS change from baseline): −0.039
  R % (relative difference in ΔEDSS with respect to full analysis dataset): 6%
  ΔEDSS (between group difference, treatment-effect vs placebo): −0.101
[1]
  LSM EDSS, MAS (overall EDSS change from baseline): −0.051
  ΔEDSS (between group difference, treatment-effect vs placebo): −0.118
nSPMS, T(diag) > 2 Y and T(onset) > 5 Y, 4.5 mg/kg/day
  R % (relative difference in ΔEDSS with respect to full analysis dataset): 24%
nSPMS, T(diag) > 2 Y
  LSM EDSS, MAS (overall EDSS change from baseline): −0.039
  R % (relative difference in ΔEDSS with respect to full analysis dataset): 7%
nSPMS, T(diag) > 3 Y
  LSM EDSS, MAS (overall EDSS change from baseline): −0.045
  R % (relative difference in ΔEDSS with respect to full analysis dataset): 13%
nSPMS, T(diag) > 4 Y
  LSM EDSS, MAS (overall EDSS change from baseline): −0.050
  R % (relative difference in ΔEDSS with respect to full analysis dataset): 29%
  ΔEDSS (between group difference, treatment-effect vs placebo): −0.123
nSPMS, T(diag) ≤ 4 Y
  LSM EDSS, MAS (overall EDSS change from baseline): 0.036
  ΔEDSS (between group difference, treatment-effect vs placebo): −0.004
nSPMS, T(onset) > 1 Y
  LSM EDSS, MAS (overall EDSS change from baseline): −0.035
  R % (relative difference in ΔEDSS with respect to full analysis dataset): 0%
  ΔEDSS (between group difference, treatment-effect vs placebo): −0.095
nSPMS, T(onset) > 2 Y
  LSM EDSS, MAS (overall EDSS change from baseline): −0.035
  R % (relative difference in ΔEDSS with respect to full analysis dataset): 0%
  ΔEDSS (between group difference, treatment-effect vs placebo): −0.095
nSPMS, T(onset) > 3 Y
  LSM EDSS, MAS (overall EDSS change from baseline): −0.037
  R % (relative difference in ΔEDSS with respect to full analysis dataset): 7%
  ΔEDSS (between group difference, treatment-effect vs placebo): −0.102
nSPMS, T(onset) > 4 Y
  LSM EDSS, MAS (overall EDSS change from baseline): −0.040
  R % (relative difference in ΔEDSS with respect to full analysis dataset): 16%
  ΔEDSS (between group difference, treatment-effect vs placebo): −0.110
nSPMS, T(onset) > 5 Y
  LSM EDSS, MAS (overall EDSS change from baseline): −0.050
  R % (relative difference in ΔEDSS with respect to full analysis dataset): 23%
nSPMS, full analysis dataset
  LSM EDSS, MAS (overall EDSS change from baseline): −0.035
nSPMS, full analysis dataset, 4.5 mg/kg/day
  ΔEDSS (between group difference, treatment-effect vs placebo): −0.095
nSPMS, full analysis dataset, listed as Masitinib, 4.5 mg/kg/day
  ΔEDSS (between group difference, treatment-effect vs placebo): significant slowing of EDSS progression
Time from diagnosis to treatment initiation of no more than 2 year
  treatment-effect with respect to placebo (EDSS): no discernable treatment-effect
Time from onset to treatment initiation of no more than 5 year
  treatment-effect with respect to placebo (EDSS): no discernable treatment-effect
